Measurements taken from publication PMC8747000, “Synthesis, Pharmacological Evaluation, and Computational Studies of Cyclic Opioid Peptidomimetics Containing β^3-Lysine” (Molecules, 2021).
Read-outs that look alike come from different tables or passages of the source. Peptide text beside a SMILES is read from it.

Legend:
[1] = Reversed-phase HPLC retention (chromatographic behavior as indication of lipophilicity); type: physicochemical; settings: RP-HPLC, Vydac C18 column (5 μm, 4.6 x 250 mm); A 0.1% TFA in water, B 80% acetonitrile in water with 0.1% TFA; linear gradient 0–100% B over 50 min; 1 mL/min; uncalibrated retention time
Source text: During the routine LC-MS analysis of analogs RP-171 and RP-172, we noticed a distinct difference in retention times and MS^n patterns for these diastereoisomeric peptides. To confirm our observation, we subjected a mixture of these peptides to LC-MS and MS^n experiments. […] It is interesting that the elution order from the biphenyl column was the same as from the C18 column.
All protected α-amino acids were purchased from Bachem A (Bubendorf, Switzerland). Opioid radioligands, [^3H]DAMGO, [^3H]deltorphin-2, and [^3H]U-69593, and human recombinant opioid receptors were purchased from PerkinElmer (Krakow, Poland). GF/B glass fiber strips were obtained from Whatman (Brentford, UK). Purity of peptides was determined by RP-HPLC and exact mass. Analytical and semi-preparative RP-HPLC was performed using Waters Breeze instrument (Milford, MA, USA) with dual absorbance detector (Waters 2487, MA, USA). […] For LC-MS experiments, Aeris Peptide C18 and Kinetex Biphenyl (Phenomenex, Torrance, CA, USA) were used, in a gradient reversed-phase mode, from 5 to 80% acetonitrile in water (both containing 0.1% HCOOH). ^1H NMR spectra were recorded on a 500 MHz Brucker instrument in DMSO-d6, using residual DMSO as a resonance reference at 2.5 ppm. […]

[2] = target: T1, MOR (Homo sapiens, UniProt P35372); test: Opioid receptor binding assay, competitive displacement of [3H]DAMGO; parameters: purchased PerkinElmer; host or cells: CHO cells
Protocol: (§1) The binding affinities of cyclopeptides RP-171 and RP-172 toward MOR, DOR, and KOR were determined by competitive binding against [^3H]DAMGO, [^3H][D-Ala^2]deltorphin-2, and U-69593, respectively, using membranes of CHO cells transfected with opioid receptors and are summarized in Table 1.
(§2) The opioid receptor binding assays were performed according to the described method, using commercial membranes of Chinese Hamster Ovary (CHO) cells transfected with human opioid receptors. The binding affinities for MOR, DOR, and KOR were determined by radioligand competition analysis using [^3H]DAMGO, [^3H]deltorphin-2, and [^3H]U-69593, respectively, as specific radioligands, respectively. Membrane preparations were incubated at 25 °C for 120 min with appropriate concentrations of a tested peptide in the presence of 0.5 nM radioligand in a total volume of 0.5 ml of 50 mM Tris/HCl (pH 7.4) containing bovine serum albumin (BSA) (1 mg/mL), bacitracin (50 µg/mL), bestatin (30 µM), and captopril (10 µM). Non-specific binding was determined in the presence of 1 µM naloxone. Incubations were terminated by the rapid filtration through the GF/B Whatman (Brentford, UK) glass fiber strips (pre-soaked for 2 h in 0.5% (v/v) polyethylamine) using Millipore Sampling Manifold (Billerica, MA, USA). The filters were washed three times with 4 ml of ice-cold Tris buffer solution. The bound radioactivity was measured in a Packard Tri-Carb 2100 TR liquid scintillation counter (Ramsey, MN, USA) after overnight extraction of the filters in 4 mL of a Perkin Elmer Ultima Gold scintillation fluid (Wellesley, MA, USA). Three independent experiments for each assay were carried out in duplicate. The data were analyzed by a nonlinear least square regression analysis computer program Graph Pad PRISM 6.0 (Graph Pad Software Inc., San Diego, CA, USA). The IC50 values were determined from the logarithmic concentration–displacement curves, and the values of the inhibitory constants (Ki) were calculated according to the equation of Cheng and Prusoff.

[3] = target: T2, DOR (Homo sapiens, UniProt P41143); test: Opioid receptor binding assay, competitive displacement of [3H]deltorphin-2; parameters: purchased PerkinElmer; host or cells: CHO cells
Protocol: as §1, §2

[4] = target: T3, KOR (Homo sapiens, UniProt P41145); test: Opioid receptor binding assay, competitive displacement of [3H]U-69593; parameters: purchased PerkinElmer; host or cells: CHO cells
Protocol: as §1, §2

[5] = target: T1, MOR; test: Calcium mobilization assay, CHO-MOR cells; type: cell-based; parameters: expressed in transfected cells; host or cells: CHO cells (gift from Prof. Girolamo Calo, University of Padova); settings: for MOR α ± SEM (intrinsic activity): Emax ratio of tested compound and standard agonist dermorphin, CHO cells co-expressing human MOR and Gαqi5
[6] = target: T2, DOR; test: Calcium mobilization assay, CHO-DOR cells; type: cell-based; parameters: expressed in transfected cells; host or cells: CHO cells (gift from Prof. Girolamo Calo, University of Padova); settings: n ≥ 3; for DOR pEC50 (CL95%): CHO cells co-expressing human recombinant DOR and GαqG66Di5, Fluo-4 AM fluorescence, FlexStation II; for DOR α ± SEM (intrinsic activity): Emax ratio of tested compound and standard agonist DPDPE, CHO cells co-expressing human DOR and GαqG66Di5
[7] = target: T3, KOR; test: Calcium mobilization assay, CHO-KOR cells; type: cell-based; parameters: expressed in transfected cells; host or cells: CHO cells (gift from Prof. Girolamo Calo, University of Padova); settings: for KOR α ± SEM (intrinsic activity): Emax ratio of tested compound and standard agonist dynorphin A, CHO cells co-expressing human KOR and Gαqi5
[8] = compared with EM-2; cited from earlier work
Source text: Endomorphins are very short peptides lacking reactive side chain groups, which makes their cyclization difficult. […] In order to obtain cyclic analogs based on the structure of EM-2 but still to preserve the free N-terminal amino group, we introduced into the sequence of EM-2 additional amino acids with functionalized side chains. A pentapeptide analog Tyr-c[D-Lys-Phe-Phe-Asp]NH2 (designated RP-170), ...

[9] = membranes of CHO cells transfected with human opioid receptors, 0.5 nM [3H]DAMGO, 25 °C, 120 min, 50 mM Tris/HCl pH 7.4, Cheng-Prusoff, mean ± SEM, n = 3, read-out: Ki MOR
[10] = membranes of CHO cells transfected with human opioid receptors, 0.5 nM [3H]deltorphin-2, 25 °C, 120 min, 50 mM Tris/HCl pH 7.4, Cheng-Prusoff, mean ± SEM, n = 3, read-out: Ki DOR
[11] = CHO cells co-expressing human recombinant MOR and Gαqi5, Fluo-4 AM fluorescence, FlexStation II, n ≥ 3, read-out: MOR pEC50 (CL95%) (converted)

## NC(=O)[C@@H]1CC(=O)NCCC[C@@H](NC(=O)[C@@H](N)Cc2ccc(O)cc2)CC(=O)N[C@@H](Cc2ccccc2)C(=O)N[C@@H](Cc2ccccc2)C(=O)N1 [RP-171, Tyr-c[(R)-β^3-Lys-Phe-Phe-Asp]NH2]
[1]
  HPLC tR: 14.05 min
[2]; [9]
  Ki: 0.029 ± 0.00432 µM
[3]; [10]
  Ki: > 1 µM
[4]; membranes of CHO cells transfected with human opioid receptors, 0.5 nM [3H]U-69593, 25 °C, 120 min, 50 mM Tris/HCl pH 7.4, Cheng-Prusoff, mean ± SEM, n = 3, SEM, read-out: Ki KOR
  Ki: 0.42 ± 0.023 µM
[4]; ratio of Ki values versus RP-170
  loss of affinity for KOR as compared with the parent RP-170: 276 fold
[5]; [11]
  EC50: 0.135 µM
[5]; n ≥ 3
  MOR α ± SEM (intrinsic activity): 0.82 ± 0.02
[6]
  DOR pEC50 (CL95%): inactive
  DOR α ± SEM (intrinsic activity): inactive
[7]; CHO cells co-expressing human recombinant KOR and Gαqi5, Fluo-4 AM fluorescence, FlexStation II, n ≥ 3, read-out: KOR pEC50 (CL95%) (converted)
  EC50: 1.02 µM
[7]; n ≥ 3
  KOR α ± SEM (intrinsic activity): 0.82
[7]; n ≥ 3, SEM
  KOR α ± SEM (intrinsic activity): 0.82 ± 0.05

## NC(=O)[C@@H]1CC(=O)NCCCC[C@@H](NC(=O)[C@@H](N)Cc2ccc(O)cc2)C(=O)N[C@@H](Cc2ccccc2)C(=O)N[C@@H](Cc2ccccc2)C(=O)N1 [RP-170, Tyr-c[D-Lys-Phe-Phe-Asp]NH2] (HELM PEPTIDE1{Y.[dK].F.F.D.[am]}$PEPTIDE1,PEPTIDE1,2:R3-5:R3$$$V2.0)
[8]
  stability in the rat brain homogenate: much more stable than EM-2
[2]; SEM
  Ki: 0.00055 ± 2e-05 µM
[3]; SEM
  Ki: 0.198 ± 0.0045 µM
[4]; SEM
  Ki: 0.00152 ± 0.0002 µM
[5]
  EC50: 0.00117 µM
[6]
  DOR pEC50 (CL95%): inactive
  DOR α ± SEM (intrinsic activity): inactive
[7]
  EC50: 0.00251 µM

## NC(=O)[C@@H]1CC(=O)NCCC[C@H](NC(=O)[C@@H](N)Cc2ccc(O)cc2)CC(=O)N[C@@H](Cc2ccccc2)C(=O)N[C@@H](Cc2ccccc2)C(=O)N1 [RP-172, Tyr-c[(S)-β^3-Lys-Phe-Phe-Asp]NH2]
[1]
  HPLC tR: 14.36 min
[2]; [9]
  Ki: 0.95 ± 0.045 µM
[3]; [10]
  Ki: > 1 µM
[4]; membranes of CHO cells transfected with human opioid receptors, 0.5 nM [3H]U-69593, 25 °C, 120 min, 50 mM Tris/HCl pH 7.4, Cheng-Prusoff, mean ± SEM, n = 3, read-out: Ki KOR
  Ki: > 1 µM
[5]; [11]
  EC50: 3.55 µM
[5]; n ≥ 3
  MOR α ± SEM (intrinsic activity): 0.45 ± 0.02
[6]
  DOR pEC50 (CL95%): inactive
  DOR α ± SEM (intrinsic activity): inactive
[7]; CHO cells co-expressing human recombinant KOR and Gαqi5, Fluo-4 AM fluorescence, FlexStation II, n ≥ 3
  KOR pEC50 (CL95%): inactive
[7]; n ≥ 3
  KOR α ± SEM (intrinsic activity): inactive
